In PMC8693659 (RSC Advances, 2021):

Molecular target: SYK (Homo sapiens, UniProt P43405)
Experiment: In vitro kinase inhibition assay
Type: biochemical
Settings: for remained SYK activities: inhibitor at 5 μM

SMILES	IC50	remained SYK activities
Cc1coc2c1C(=O)C(=O)c1c-2ccc2c1CCCC2(C)C [TanIIA, tanshinoneIIA]	3200 nM	44.7 ± 3.3%
Cc1coc2c1C(=O)C(=O)c1c-2ccc2c(C)cccc12 [TanI, tanshinone I]	1720 nM	37.0 ± 2.3%
